Measured values as given in patent publication US12076304B2, “Compositions comprising 15-HEPE and methods of treating or preventing hematologic disorders, and/or related diseases” (priority 2020, dated 2024).
Entries after “also recorded” stand apart in the source; their conditions may differ.

Columns and labels:
Type in all cases: in vivo
Alpha-SMA mRNA = assay: UUO mice kidney quantitative RT-PCR, Alpha-SMA
Description: (§1) Quantitative RT-PCR: Total ribonucleic acid (RNA) was extracted from kidney samples using RNAiso (Takara Bio, Japan) according to the manufacturer's instructions. One μg of RNA was reverse-transcribed using a reaction mixture containing […] (mM) of magnesium chloride (MgCl2) (F. Hoffmann-La Roche, Switzerland), 40 U RNase inhibitor (Toyobo, Japan), 0.5 mM dNTP (Promega, USA), 6.28 μM random hexamer (Promega), 5× first strand buffer (Promega), 10 mM dithiothreitol (Invitrogen, USA) and 200 U MMLV-RT (Invitrogen) in a final volume of 20 μL. The reaction was carried out for 1 hour at 37° C., followed by 5 minutes at 99° C. Real-time PCR was performed using real-time PCR DICE and TB Green™ Premix Ex Taq™ II (Takara Bio). To calculate the relative […] (mRNA) expression level, the expression of each gene (e.g., α-SMA, TIMP-1, TGF-β and Collagen Type 1) was normalized to that of reference gene 36B4 (gene symbol: Rplp0). Information regarding the PCR-primer sets and the plate layout are described in Tables 1 and 2.

[1] = system: UUO-induced renal interstitial fibrosis; assay: UUO mice: kidney hydroxyproline content; conditions: for Kidney hydroxyproline: n = 8
Description: Measurement of Kidney Biochemistry: To quantify kidney hydroxyproline content, frozen left kidney samples were processed by an alkaline-acid hydrolysis method as follows: kidney samples were dissolved in 2 normal (N) sodium hydroxide (NaOH) at 65° C. and autoclaved at 121° C. for 20 minutes. The lysed samples (400 μL) were acid-hydrolyzed with 400 μL of 6N hydrochloride acid (HCl) at 121° C. for 20 minutes, and neutralized with 400 μL of 4N NaOH containing 10 mg/mL of activated carbon. An AC buffer (e.g., 2.2M acetic acid/0.48M citric acid, 400 μL) was added to the samples, followed by centrifugation to collect the supernatant. A standard curve of hydroxyproline was constructed with serial dilutions of trans-4-hydroxy-L-proline (Sigma-Aldrich, USA) starting at 16 μg/mL. The prepared samples and standards (e.g., each 400 μL) were mixed with 400 μL chloramine T solution (Wako Pure Chemical Industries, Japan) and incubated for 25 minutes at room temperature. The samples were then mixed with Ehrlich's solution (e.g., 400 μL) and heated at 65° C. for 20 minutes to develop the color. After samples were cooled on ice and centrifuged to remove precipitates, the optical density of each supernatant was measured at 560 nanometers (nm). The concentrations of hydroxyproline were calculated from the hydroxyproline standard curve. Protein concentrations of kidney samples were determined using a bicinchoninic (BCA) protein assay kit (Thermo Fisher Scientific, USA) and used to normalize the calculated hydroxyproline values. Kidney hydroxyproline contents were expressed as microgram (μg) per mg protein.
Sample Collection: For serum samples, non-fasting blood was collected in serum separate tubes without anticoagulant through direct cardiac puncture and centrifuged at 3,500×g for 4 minutes at 4° C. The supernatant was collected and stored at −80° C. for shipping. For kidney samples, the left kidney was collected and cut into 2 pieces horizontally. […] Paraffin blocks were stored at room temperature for histological analyses. […] The anterior part of left kidney was snap frozen in liquid nitrogen and stored at −80° C. for gene expression assay. The posterior part of left kidney was snap frozen in liquid nitrogen and stored at −80° C. for kidney biochemistry.

TGF-β mRNA = assay: UUO mice kidney quantitative RT-PCR, TGF-β
Description: as §1

[2] = system: UUO-induced renal interstitial fibrosis; assay: UUO mice: Sirius red staining of kidney sections, fibrosis area; conditions: for Sirius red-positive area / Sirius red-positive area (%) _Median: UUO mice kidney, Day 14, n = 8; for Sirius red-positive area: mean ± SD; for fibrosis area compared with the Vehicle group: UUO mice
Description: Histopathological analysis: To visualize collagen deposition, kidney sections were stained using picro-Sirius red solution (Waldeck, Germany). For quantification of interstitial fibrosis area, bright field images in the corticomedullary region were captured using a digital camera (e.g., DFC295; Leica Microsystems, Germany) at 200-fold magnification, and the positive areas in 5 fields/section were measured using ImageJ software (National Institute of Health, USA).

UUO mice = assay: UUO mice: body weight, kidney weight, general condition; conditions: n = 8
Description: UUO Surgery: On day 0 of the study, UUO surgery was performed on mice under pentobarbital sodium anesthesia. The mouse's hair was first shaved and then abdomen cut open to exteriorize the mouse's left ureter. The ureter was ligated 4-0 nylon sutures at two points. The mouse's peritoneum and skin were then closed with sutures, and the mouse transferred to a clean cage until recovered from the anesthesia. Sham operated mice had their left ureter exposed but not ligated. […]
Animals: Seven-week-old female C57BL/6 mice (i.e., animals) were obtained from Japan SLC, Inc. (Japan) and were housed and fed with a normal diet (CE-2; CLEA Japan, Japan) under controlled conditions. The animals were maintained in a specific-pathogen free (SPF) facility under controlled conditions of temperature (e.g., 23±2° C.), humidity (e.g., 45±10%), lighting (e.g., 12-hour artificial light and dark cycles; light from 8:00 to 20:00) and air exchange. A high pressure was maintained in the experimental room to prevent contamination of the facility. The animals were housed in TPX cages (CLEA Japan) with a maximum of 4 mice per cage. Sterilized Paper-Clean (Japan SLC) was used for bedding and replaced once a week. Sterilized solid normal diet was provided ad libitum, being placed in a metal lid on the top of the cage. Pure water was also provided ad libitum from a water bottle equipped with a rubber stopper and a sipper tube. Water bottles were replaced once a week, cleaned, and sterilized in an autoclave and reused. Mice were identified by ear punch and each cage was labeled with a specific identification code.
Animal Monitoring and Sacrifice: The viability, clinical signs and behavior for the mice were monitored daily. Individual body weight was measured daily before treatment during the treatment period. […] The animals were sacrificed by exsanguination through direct cardiac puncture under isoflurane anesthesia (Pfizer Inc.) at Day 14.

Collagen Type 1 mRNA = assay: UUO mice kidney quantitative RT-PCR, Collagen Type 1
Description: as §1

[3] = 50 mg/kg PO QD Day 0-13, normalized to 36B4, Sham 1.00, mean ± SD
[4] = 500 mg/kg PO QD Day 0-13, normalized to 36B4, Sham 1.00, mean ± SD
[5] = 50 mg/kg PO QD Day 0-13, Day 14, mean ± SD
[6] = 500 mg/kg PO QD Day 0-13, Day 14, mean ± SD
[7] = 50 mg/kg PO QD Day 0-13, Mann-Whitney U test, trend p<0.1, 50 mg/kg
[8] = 5 mg/kg PO QD Day 0-13, normalized to 36B4, Sham 1.00, mean ± SD
[9] = 250 mg/kg PO QD Day 0-13, normalized to 36B4, Sham 1.00, mean ± SD
[10] = 5 mg/kg PO QD Day 0-13, Day 14, mean ± SD
[11] = 250 mg/kg PO QD Day 0-13, Day 14, mean ± SD

15-HEPE [DS102]
Alpha-SMA relative mRNA expression level (Alpha-SMA mRNA; [3]): 3.74 ± 0.81
Alpha-SMA relative mRNA expression level (Alpha-SMA mRNA; [4]): 5.54 ± 1.54
Kidney hydroxyproline [1, 5]: 8.47 ± 2.08 μg/mg total protein
kidney hydroxyproline contents compared with the Vehicle group ([1]; 50 mg/kg PO QD Day 0-13, significance p<0.05, 50 mg/kg): significant decrease
Kidney hydroxyproline [1, 6]: 8.59 ± 1.99 μg/mg total protein
kidney hydroxyproline contents compared with the Vehicle group ([1]; 500 mg/kg PO QD Day 0-13, significance p<0.05): significant decreases
TGF-β relative mRNA expression level (TGF-β mRNA; [3]): 4.31 ± 0.69
TGF-β relative mRNA expression level (TGF-β mRNA; [4]): 5.37 ± 0.76
Sirius red-positive area ([2]; 50 mg/kg PO QD Day 0-13): 5.01 ± 3.11%
Sirius red-positive area (%) _Median ([2]; 50 mg/kg PO QD Day 0-13): 4.19 ± 3.33%
Sirius red-positive area ([2]; 500 mg/kg PO QD Day 0-13): 4.01 ± 1.92%
Sirius red-positive area (%) _Median ([2]; 500 mg/kg PO QD Day 0-13): 3.08 ± 1.16%
fibrosis area compared with the Vehicle group [2, 7]: tended to decrease; also recorded: reduction trend
fibrosis area compared with the Vehicle group ([2]; 500 mg/kg PO QD Day 0-13, Mann-Whitney U test, trend p<0.1, 500 mg/kg): tended to decrease; also recorded: reduction trend
Left Kidney Weight (UUO mice; [5]): 469 ± 60 mg
Right Kidney Weight (UUO mice; [5]): 133 ± 10 mg
Left Kidney Weight (UUO mice; [6]): 487 ± 108 mg
Right Kidney Weight (UUO mice; [6]): 136 ± 6 mg
Collagen Type 1 relative mRNA expression level (Collagen Type 1 mRNA; [3]): 11.80 ± 1.78
Collagen Type 1 relative mRNA expression level (Collagen Type 1 mRNA; [4]): 14.09 ± 2.88

CCCCCC(O)/C=C/C=C\C/C=C\CCCCCCC(=O)O (stereo not drawn) [DS109, 15-HETrE]
Alpha-SMA relative mRNA expression level (Alpha-SMA mRNA; [8]): 3.87 ± 0.82
Alpha-SMA relative mRNA expression level (Alpha-SMA mRNA; [3]): 4.61 ± 3.15
Alpha-SMA relative mRNA expression level (Alpha-SMA mRNA; [9]): 4.85 ± 1.22
Kidney hydroxyproline [1, 10]: 9.94 ± 2.02 μg/mg total protein
kidney hydroxyproline contents compared with the Vehicle group ([1]; 5 mg/kg PO QD Day 0-13, significance p<0.05): significant decreases
Kidney hydroxyproline [1, 5]: 13.94 ± 6.44 μg/mg total protein
kidney hydroxyproline contents compared with the Vehicle group ([1]; 50 mg/kg PO QD Day 0-13, significance p<0.05): no significant difference
Kidney hydroxyproline [1, 11]: 8.30 ± 1.04 μg/mg total protein
kidney hydroxyproline contents compared with the Vehicle group ([1]; 250 mg/kg PO QD Day 0-13, significance p<0.05): significant decreases
TGF-β relative mRNA expression level (TGF-β mRNA; [8]): 4.29 ± 0.93
TGF-β relative mRNA expression level (TGF-β mRNA; [3]): 6.01 ± 4.77
TGF-β relative mRNA expression level (TGF-β mRNA; [9]): 5.48 ± 0.36
Sirius red-positive area ([2]; 5 mg/kg PO QD Day 0-13): 4.23 ± 1.90%
Sirius red-positive area (%) _Median ([2]; 5 mg/kg PO QD Day 0-13): 3.22 ± 1.47%
Sirius red-positive area ([2]; 50 mg/kg PO QD Day 0-13): 3.58 ± 1.04%
Sirius red-positive area (%) _Median ([2]; 50 mg/kg PO QD Day 0-13): 3.28 ± 1.41%
Sirius red-positive area ([2]; 250 mg/kg PO QD Day 0-13): 4.71 ± 0.96%
Sirius red-positive area (%) _Median ([2]; 250 mg/kg PO QD Day 0-13): 3.76 ± 0.81%
fibrosis area compared with the Vehicle group ([2]; 5 mg/kg PO QD Day 0-13, Mann-Whitney U test, trend p<0.1, 5 mg/kg): tended to decrease; also recorded: reduction trend
fibrosis area compared with the Vehicle group ([2]; 50 mg/kg PO QD Day 0-13, Bonferroni Multiple Comparison): tended to decrease
fibrosis area compared with the Vehicle group [2, 7]: tended to decrease; also recorded: reduction trend
fibrosis area compared with the Vehicle group ([2]; 250 mg/kg PO QD Day 0-13, Mann-Whitney U test, trend p<0.1, 250 mg/kg): tended to decrease; also recorded: reduction trend
Body Weight (UUO mice; [10]): 19.1 ± 0.9 g
Left Kidney Weight (UUO mice; [10]): 533 ± 138 mg
Left Kidney-to-Body Weight Ratio (UUO mice; [10]): 2.79 ± 0.65%
Right Kidney Weight (UUO mice; [10]): 137 ± 7 mg
Right Kidney-to-Body Weight Ratio (UUO mice; [10]): 0.71 ± 0.04%
Body Weight (UUO mice; [5]): 18.6 ± 0.6 g
Left Kidney Weight (UUO mice; [5]): 523 ± 91 mg
Left Kidney-to-Body Weight Ratio (UUO mice; [5]): 2.83 ± 0.50%
Right Kidney Weight (UUO mice; [5]): 135 ± 6 mg
Right Kidney-to-Body Weight Ratio (UUO mice; [5]): 0.73 ± 0.05%
Body Weight (UUO mice; [11]): 18.6 ± 0.7 g
Left Kidney Weight (UUO mice; [11]): 425 ± 105 mg
Left Kidney-to-Body Weight Ratio (UUO mice; [11]): 2.26 ± 0.53%
Right Kidney Weight (UUO mice; [11]): 130 ± 13 mg
Right Kidney-to-Body Weight Ratio (UUO mice; [11]): 0.70 ± 0.05%
Collagen Type 1 relative mRNA expression level (Collagen Type 1 mRNA; [8]): 10.76 ± 1.45
Collagen Type 1 relative mRNA expression level (Collagen Type 1 mRNA; [3]): 15.23 ± 11.52
Collagen Type 1 relative mRNA expression level (Collagen Type 1 mRNA; [9]): 13.88 ± 1.91
